Patent US20110319392A1, “Thiazole Sulfonamide And Oxazole Sulfonamide Kinase Inhibitors” (priority 2009, published 2011)

How the values were obtained:
Colo205 tumor cells = test: Cell growth inhibition assay (CellTiter-Glo), Colo205; type: cell-based, Human; conditions: Homo sapiens, COLO 205, 72 h; 3 days incubation
Procedure, shortened: (§1)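 Cells plated at 500 cells/well in their growth media, dosed next day with nine-step 1:3 compound dilutions (final DMSO 0.2%), then incubated 3 days at 37° C, 5% CO2. Total ATP read by CellTiter-Glo luminescence as a surrogate for cell number; IC50 interpolated from 4-parameter fit versus DMSO controls.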

HT-29 tumor cells = test: Cell growth inhibition assay (CellTiter-Glo), HT-29; type: cell-based, Human; conditions: for IC50: Homo sapiens
Method: (§2) Human breast tumor cells (BT474) were cultured in RPMI (Mediatech […]), containing 10% FBS (JRH Biosciences 12176) and 1% penicillin-streptomycin (Invitrogen 15140). Human head and neck tumor cells (HN5) were cultured in high glucose DMEM (Mediatech 50-013-PB) containing 10% FBS and 1% penicillin-streptomycin. Human colon tumor cells (Colo205) were cultured in RPMI (Mediatech 50-020-PB) containing 10% FBS and 1% penicillin-streptomycin. Human melanoma cancer cells (SK-MEL-28) were cultured in EMEM with nonessential amino acids (Mediatech 50-011-PB) containing 10% FBS, 1% sodium pyruvate (JT Baker 3354-04), and 1% penicillin-streptomycin. Human melanoma cancer cells (A375P F11s) were cultured in RPMI (Mediatech 50-020-PB) containing 10% FBS, 1% sodium pyruvate, and 1% penicillin-streptomycin. Human colon cancer cells (HT-29) were cultured in high glucose DMEM (Mediatech 50-013-PB) containing 10% FBS and 1% penicillin-streptomycin. Human melanoma cancer cells (SK-MEL-3) were cultured in McCoy's 5A (50-025-PB) containing 15% FBS, and 1% penicillin-streptomycin. All cell lines were maintained at 37° C. in a humidified 5% CO2, 95% air incubator. Cells were harvested using trypsin/EDTA (Invitrogen 25200), counted using a haemocytometer, and plated. For 96-well assays (using white full-area NUNC plates cat. #136102), cells were plated in 105 μL at the following densities (cells/well): HNS, 500; Colo 205, 500; SK-MEL-28, 500; A375P F11s, 500; HT-29, 500; SK-MEL-3, 500; and BT474, 3000. For 384-well assays (white full-area NUNC plates, cat. #781080), cells were plated in 48 μL at the following densities (cells/well): HNS, 500; Colo205, 500; SK-MEL-28, 500; A375P F11s, 500; HT-29, 500; SK-MEL-3, 500; and BT474, 2000.
(§3) The next day, compounds were diluted as follow: For 96-well assays, 13.5 μL of compound in DMSO were diluted using nine (9) serial 1:3 dilutions of 4.5 μL in 9 of DMSO. Medium (270 μL/well of RPMI with 10% FBS and 1% penicillin-streptomycin) was added to the plates. Aliquots (7 μL) were added to cells in the final assay giving a final DMSO concentration of 0.2%. For 384-well assays, 15 μL of compound in DMSO were diluted using nine (9) serial 1:3 dilutions of 5 μL in 10 μL of DMSO, followed by a further dilution of 5 μL of compound with 95 μL of medium, of which 2 μL were added to cells in the final assay giving a final DMSO concentration of 0.2%. Cells were incubated at 37° C., 5% CO2 for 3 days.
(§4) Total ATP was measured (as a surrogate estimate of cell number) using CellTiter-Glo® reagent (Promega G7571). Briefly, plates were removed from the incubator and allowed to equilibrate to room temperature for 30 minutes. CellTiter-Glo® (25 μL or 55 μL for 384-well or 96-well assays, respectively) reagent was added to each well and plates were shaken on an orbital plate shaker for 2 minutes. Plates were incubated without shaking for a further 30 minutes and read on an LJL Analyst GT reader in luminometer mode with an integration time of 0.5 seconds per well. Percent inhibition of cell growth was calculated relative to DMSO vehicle-treated control wells. Concentration of compound required to give 50% inhibition of vehicle-treated control cell growth (IC50) was interpolated using a 4-parameter fit for determining IC50 using the following equation: Y=A +((B−A)/(1+((C/X)̂D))) where […].

BT474 tumor cells = test: Cell growth inhibition assay (CellTiter-Glo), BT474; type: cell-based, Human; conditions: Homo sapiens, BT-474, 72 h, 3 days incubation
Method: as §2, §3, §4

EGFR = target: T1, EGFR (Homo sapiens, UniProt P00533); test: EGFR substrate phosphorylation assay (HTRF); type: biochemical
T1 construct: made in house; host or cells: baculovirus expression system
Procedure, shortened: (§5)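 Baculovirus-expressed EGFR (0.8 nM) or ErbB2 (10 nM) in enzyme mix, preincubated 1 h at 20 °C with compound (0.00027–47.6 μM final), then 90 min at 20 °C with substrate mix of 20 μM ATP, 0.8 uM biotinylated Peptide C, MnCl2, MOPS pH 7.5. Phosphotyrosine by HTRF; pIC50 reported.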

HN5 tumor cells = test: Cell growth inhibition assay (CellTiter-Glo), HN5; type: cell-based, Human; conditions: Homo sapiens, 72 h; 3 days incubation
Method: as §2, §3, §4

ErbB2 = target: T2, ErbB2 (Homo sapiens, UniProt P04626); test: ErbB-2 substrate phosphorylation assay (HTRF); type: biochemical
T2 construct: made in house; host or cells: baculovirus expression system
Procedure, shortened: as §5

SK-MEL-3 tumor cells = test: Cell growth inhibition assay (CellTiter-Glo), SK-MEL-3; type: cell-based, Human; conditions: for IC50: Homo sapiens, SK-MEL3
Method: as §2, §3, §4

SK-MEL-28 tumor cells = test: Cell growth inhibition assay (CellTiter-Glo), SK-MEL-28; type: cell-based, Human; conditions: Homo sapiens, SK-MEL-28, 72 h; 3 days incubation
Procedure, shortened: as §1

A375P F11s tumor cells = test: Cell growth inhibition assay (CellTiter-Glo), A375P F11s; type: cell-based, Human; conditions: for IC50: Homo sapiens
Method: as §2, §3, §4

B-Raf = B-Raf (Homo sapiens, UniProt P15056); test: B-Raf Accelerated MEK ATPase assay (BRAMA), Method A or B; type: biochemical; conditions: Method B: final MEK 150 nM, single end point read
Procedure, shortened: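 Activated Raf plus non-phosphorylated MEK drives MEK-mediated ATP hydrolysis; ADP formation coupled via pyruvate kinase/lactate dehydrogenase to NADH oxidation. Method A read kinetically; Method B used 150 nM final MEK and a single end-point read.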

T1 sequence (P00533 25-1210): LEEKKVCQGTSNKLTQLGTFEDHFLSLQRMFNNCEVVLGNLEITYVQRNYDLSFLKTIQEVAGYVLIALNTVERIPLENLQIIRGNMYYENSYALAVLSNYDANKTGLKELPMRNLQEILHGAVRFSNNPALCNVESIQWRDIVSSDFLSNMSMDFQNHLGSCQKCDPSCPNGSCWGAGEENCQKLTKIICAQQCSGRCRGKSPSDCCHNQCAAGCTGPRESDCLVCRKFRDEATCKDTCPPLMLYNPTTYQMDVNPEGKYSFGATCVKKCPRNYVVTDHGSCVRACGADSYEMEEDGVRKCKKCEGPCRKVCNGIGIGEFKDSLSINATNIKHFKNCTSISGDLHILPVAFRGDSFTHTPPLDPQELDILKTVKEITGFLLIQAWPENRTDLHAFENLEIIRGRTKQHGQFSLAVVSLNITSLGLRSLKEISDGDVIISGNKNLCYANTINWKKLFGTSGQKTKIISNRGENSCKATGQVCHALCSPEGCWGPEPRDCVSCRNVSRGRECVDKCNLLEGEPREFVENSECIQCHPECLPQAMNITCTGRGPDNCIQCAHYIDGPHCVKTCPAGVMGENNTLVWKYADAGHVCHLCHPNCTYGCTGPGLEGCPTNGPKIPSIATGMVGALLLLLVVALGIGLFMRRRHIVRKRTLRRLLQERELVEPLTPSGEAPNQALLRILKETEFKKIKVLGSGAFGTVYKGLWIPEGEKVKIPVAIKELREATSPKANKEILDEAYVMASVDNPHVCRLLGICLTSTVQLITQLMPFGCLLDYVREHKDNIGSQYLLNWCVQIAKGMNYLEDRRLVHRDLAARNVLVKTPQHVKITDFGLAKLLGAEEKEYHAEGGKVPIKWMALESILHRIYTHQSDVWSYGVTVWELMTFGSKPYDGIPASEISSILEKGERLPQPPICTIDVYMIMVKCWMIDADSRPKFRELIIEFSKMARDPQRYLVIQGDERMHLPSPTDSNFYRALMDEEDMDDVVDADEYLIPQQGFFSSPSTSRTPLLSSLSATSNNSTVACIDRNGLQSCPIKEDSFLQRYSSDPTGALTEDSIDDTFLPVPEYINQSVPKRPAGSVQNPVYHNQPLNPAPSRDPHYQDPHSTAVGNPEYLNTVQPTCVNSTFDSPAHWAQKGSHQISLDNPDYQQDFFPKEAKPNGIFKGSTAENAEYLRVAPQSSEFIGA
Sequence of B-Raf (P15056 whole entry): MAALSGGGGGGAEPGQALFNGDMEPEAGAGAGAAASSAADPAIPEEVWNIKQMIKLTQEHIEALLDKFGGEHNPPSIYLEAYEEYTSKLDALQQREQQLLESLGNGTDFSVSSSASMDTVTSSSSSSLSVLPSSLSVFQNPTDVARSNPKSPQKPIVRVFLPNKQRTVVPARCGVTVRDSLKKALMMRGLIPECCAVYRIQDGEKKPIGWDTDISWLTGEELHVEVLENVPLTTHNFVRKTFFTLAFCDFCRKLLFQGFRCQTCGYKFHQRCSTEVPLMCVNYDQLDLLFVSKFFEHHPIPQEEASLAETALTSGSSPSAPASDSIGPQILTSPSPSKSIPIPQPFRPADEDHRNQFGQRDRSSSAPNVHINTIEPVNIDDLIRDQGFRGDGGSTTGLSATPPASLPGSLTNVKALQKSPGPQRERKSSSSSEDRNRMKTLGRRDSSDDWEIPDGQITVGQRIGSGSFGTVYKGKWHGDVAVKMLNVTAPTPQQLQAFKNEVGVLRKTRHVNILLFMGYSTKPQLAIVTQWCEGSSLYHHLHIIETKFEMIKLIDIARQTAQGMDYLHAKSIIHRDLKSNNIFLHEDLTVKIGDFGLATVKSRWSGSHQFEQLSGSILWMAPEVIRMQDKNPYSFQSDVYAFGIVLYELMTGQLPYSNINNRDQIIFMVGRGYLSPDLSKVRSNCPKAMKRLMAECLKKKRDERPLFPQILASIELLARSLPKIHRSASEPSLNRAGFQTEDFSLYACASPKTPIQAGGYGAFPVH
T2 sequence (P04626 23-1255): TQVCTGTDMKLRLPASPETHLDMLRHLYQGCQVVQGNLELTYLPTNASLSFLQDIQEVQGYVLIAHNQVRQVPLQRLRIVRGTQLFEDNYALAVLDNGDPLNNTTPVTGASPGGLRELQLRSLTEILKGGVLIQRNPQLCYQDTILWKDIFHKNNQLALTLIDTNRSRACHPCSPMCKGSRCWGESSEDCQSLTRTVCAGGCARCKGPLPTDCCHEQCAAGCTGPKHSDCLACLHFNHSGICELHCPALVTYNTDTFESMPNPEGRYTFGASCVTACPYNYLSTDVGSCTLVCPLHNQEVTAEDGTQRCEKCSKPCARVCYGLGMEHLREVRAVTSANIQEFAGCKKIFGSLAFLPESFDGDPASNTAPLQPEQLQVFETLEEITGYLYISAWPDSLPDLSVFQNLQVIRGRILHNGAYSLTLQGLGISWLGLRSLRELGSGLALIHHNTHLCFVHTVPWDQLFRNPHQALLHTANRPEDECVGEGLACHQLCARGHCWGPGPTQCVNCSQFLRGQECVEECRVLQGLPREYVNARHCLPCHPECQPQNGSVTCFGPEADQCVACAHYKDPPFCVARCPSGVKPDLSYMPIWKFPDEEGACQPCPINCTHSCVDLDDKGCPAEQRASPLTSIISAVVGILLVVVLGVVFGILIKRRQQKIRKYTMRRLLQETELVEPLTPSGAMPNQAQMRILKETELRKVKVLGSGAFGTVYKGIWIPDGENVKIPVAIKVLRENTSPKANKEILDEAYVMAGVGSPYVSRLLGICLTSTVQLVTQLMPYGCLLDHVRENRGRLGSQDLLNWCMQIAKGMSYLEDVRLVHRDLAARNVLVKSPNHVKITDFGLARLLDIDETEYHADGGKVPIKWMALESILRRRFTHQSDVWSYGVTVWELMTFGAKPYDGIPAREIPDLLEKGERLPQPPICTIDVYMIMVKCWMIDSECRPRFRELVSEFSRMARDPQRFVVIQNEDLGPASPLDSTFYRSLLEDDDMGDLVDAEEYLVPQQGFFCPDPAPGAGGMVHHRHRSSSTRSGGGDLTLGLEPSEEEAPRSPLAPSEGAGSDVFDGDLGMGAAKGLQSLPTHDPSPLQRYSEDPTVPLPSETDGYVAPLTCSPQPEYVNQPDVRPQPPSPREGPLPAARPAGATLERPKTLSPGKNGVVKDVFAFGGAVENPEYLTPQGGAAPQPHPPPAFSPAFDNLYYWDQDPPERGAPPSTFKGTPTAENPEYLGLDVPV

IC50 (Colo205 tumor cells)	IC50 (HT-29 tumor cells)	IC50 (BT474 tumor cells)	IC50 (EGFR)	IC50 (HN5 tumor cells)	IC50 (ErbB2)	IC50 (SK-MEL-3 tumor cells)	IC50 (SK-MEL-28 tumor cells)	IC50 (A375P F11s tumor cells)	IC50 (B-Raf)	SMILES	Activity in HT-29 Tumor Cells (HT-29 tumor cells)	Activity in SK-MEL-3 Tumor Cells (SK-MEL-3 tumor cells)	Activity in A375P F11s Tumor Cells (A375P F11s tumor cells)
< 0.1 µM	0.1 to 1 µM	> 1 µM	> 1 µM	0.1 to 1 µM	> 1 µM	< 0.1 µM	< 0.1 µM	< 0.1 µM	–	CCc1nc(-c2cccc(NS(=O)(=O)c3ccccc3)c2)c(-c2ccnc(Nc3cc(OC)c(OC)c(OC)c3)n2)s1 [Example 2, N-{3-[2-Ethyl-5-(2-{[3,4,5-tris(methyloxy)phenyl]amino}-4-pyrimidinyl)-1,3-thiazol-4-yl]phenyl}benzenesulfonamide]	–	–	–
–	–	–	–	–	–	–	–	–	–	COCCN1CCN(c2ccc(Nc3nccc(-c4sc(C(C)C)nc4-c4cccc(NS(=O)(=O)c5ccccc5)c4)n3)cn2)CC1.Cl [Example 7]	+++ (activity of less than 100 nM in HT-29 tumor cells)	+++ (activity of less than 100 nM in SK-MEL-3 tumor cells)	+++ (activity of less than 100 nM in A375P F11s tumor cells)
0.1 to 1 µM	> 1 µM	> 1 µM	> 1 µM	> 1 µM	> 1 µM	–	0.1 to 1 µM	–	< 0.1 µM	CCc1nc(-c2ccc(F)c(NS(=O)(=O)c3ccccc3)c2)c(-c2ccnc(Nc3ccc(N4CCN(C(C)=O)CC4)nc3)n2)s1 [Example 66]	–	–	–
< 0.1 µM	< 0.1 µM	> 1 µM	> 1 µM	> 1 µM	> 1 µM	–	< 0.1 µM	–	0.1 to 1 µM	CC(C)(F)c1nc(-c2cccc(NS(=O)(=O)c3c(F)cccc3F)c2)c(-c2ccnc(Nc3ccc(N4CCN(CCF)CC4)c(F)c3)n2)s1 [Example 94]	–	–	–
0.1 to 1 µM	0.1 to 1 µM	–	> 1 µM	–	> 1 µM	0.1 to 1 µM	< 0.1 µM	0.1 to 1 µM	< 0.1 µM	COc1cc(C2CCN(CCS(C)(=O)=O)CC2)c(C)cc1Nc1nccc(-c2sc(C(C)C)nc2-c2cccc(NS(=O)(=O)c3c(F)cccc3F)c2)n1 [Example 115]	–	–	–
< 0.1 µM	–	–	< 0.1 µM	–	< 0.1 µM	–	< 0.1 µM	–	< 0.1 µM	COc1cc(OC2CCN(CCS(C)(=O)=O)CC2)c(C)cc1Nc1nccc(-c2sc(C(C)C)nc2-c2cccc(NS(=O)(=O)c3c(F)cccc3F)c2)n1 [Example 158]	–	–	–
< 0.1 µM	–	–	0.1 to 1 µM	–	0.1 to 1 µM	–	0.1 to 1 µM	–	< 0.1 µM	COc1cc(N2CCC3(CC2)CCN(S(C)(=O)=O)CC3)c(C)cc1Nc1nccc(-c2sc(C(C)C)nc2-c2cccc(NS(=O)(=O)c3c(F)cccc3F)c2F)n1 [Example 160]	–	–	–
< 0.1 µM	–	–	< 0.1 µM	–	< 0.1 µM	–	0.1 to 1 µM	–	0.1 to 1 µM	COc1cc(N2CCN(CCS(C)(=O)=O)CC2)c(C)cc1Nc1nccc(-c2sc(CC(C)C)nc2-c2cccc(NS(=O)(=O)c3c(F)cccc3F)c2)n1 [Example 161]	–	–	–
0.1 to 1 µM	–	–	< 0.1 µM	–	< 0.1 µM	–	0.1 to 1 µM	–	0.1 to 1 µM	COc1cc(N2CCN(CCS(C)(=O)=O)CC2)c(C)cc1Nc1nccc(-c2scnc2-c2cccc(NS(=O)(=O)c3c(F)cccc3F)c2)n1 [Example 163]	–	–	–
< 0.1 µM	–	–	> 1 µM	–	> 1 µM	–	< 0.1 µM	–	< 0.1 µM	COc1ccc(S(C)(=O)=O)cc1Nc1nccc(-c2sc(N3CCOCC3)nc2-c2cccc(NS(=O)(=O)c3c(F)cccc3F)c2Cl)n1 [Example 164]	–	–	–
< 0.1 µM	–	–	0.1 to 1 µM	–	0.1 to 1 µM	–	< 0.1 µM	–	< 0.1 µM	COc1ccc(S(C)(=O)=O)cc1Nc1nccc(-c2sc(C(C)C)nc2-c2cccc(NS(=O)(=O)c3c(F)cccc3F)c2F)n1 [Example 165]	–	–	–
< 0.1 µM	0.1 to 1 µM	–	> 1 µM	–	> 1 µM	0.1 to 1 µM	0.1 to 1 µM	0.1 to 1 µM	< 0.1 µM	COc1c(NS(=O)(=O)c2c(F)cccc2F)cccc1-c1nc(N2CCOCC2)sc1-c1ccnc(Nc2ccc3c(c2)OCCO3)n1 [Example 170]	–	–	–
< 0.1 µM	–	–	0.1 to 1 µM	–	0.1 to 1 µM	–	< 0.1 µM	–	< 0.1 µM	COc1cc(OCCN2CCOCC2)c(C)cc1Nc1nccc(-c2sc(C(C)C)nc2-c2cccc(NS(=O)(=O)c3c(F)cccc3F)c2F)n1 [Example 171]	–	–	–
> 1 µM	–	–	0.1 to 1 µM	–	< 0.1 µM	–	> 1 µM	–	< 0.1 µM	COc1ccc(S(C)(=O)=O)cc1Nc1nccc(-c2sc(C(C)C)nc2-c2cccc(NS(=O)(=O)c3c(F)cccc3F)n2)n1 [Example 172]	–	–	–
0.1 to 1 µM	–	–	> 1 µM	–	0.1 to 1 µM	–	0.1 to 1 µM	–	0.1 to 1 µM	COc1cc(N2CCN(CCS(C)(=O)=O)CC2)c(C)cc1Nc1nccc(-c2sc(C(C)C)nc2-c2cccc(NS(=O)(=O)c3cnn(C)c3)c2)n1 [Example 173]	–	–	–
< 0.1 µM	–	–	> 1 µM	–	> 1 µM	–	< 0.1 µM	–	< 0.1 µM	CC(C)c1nc(-c2cccc(NS(=O)(=O)c3cnn(C)c3)c2)c(-c2ccnc(Nc3ccc(N4CCOCC4)nc3)n2)s1 [Example 174]	–	–	–
< 0.1 µM	–	–	0.1 to 1 µM	–	< 0.1 µM	–	0.1 to 1 µM	–	0.1 to 1 µM	COc1cc(N2CCN(CCS(C)(=O)=O)CC2)c(C)cc1Nc1nccc(-c2sc(C3CC3)nc2-c2cccc(NS(=O)(=O)c3c(F)cccc3F)c2)n1 [Example 175]	–	–	–
< 0.1 µM	–	–	> 1 µM	–	> 1 µM	–	< 0.1 µM	–	< 0.1 µM	CC(C)c1nc(-c2cccc(NS(=O)(=O)c3c(F)cccc3F)c2)c(-c2ccnc(Nc3ccc(N4CCN(CCS(C)(=O)=O)CC4)cc3C(F)(F)F)n2)s1 [Example 176]	–	–	–
< 0.1 µM	–	–	< 0.1 µM	–	< 0.1 µM	–	< 0.1 µM	–	< 0.1 µM	COc1cc(N2CCN(CCS(C)(=O)=O)CC2)c(C)cc1Nc1nccc(-c2sc(C3CCOCC3)nc2-c2cccc(NS(=O)(=O)c3c(F)cccc3F)c2F)n1 [Example 177]	–	–	–
